system: AGS cells (KRAS^G12D); assay: Detection of cell proliferation in vitro by MTT/MTS method (cell activity experiment); type: cell-based; details: AGS cells; MTT/MTS; 3 days of drug treatment; read-out: AGS IC50
Method in brief: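 After 3-day compound exposure (final DMSO 0.5%), viability of AGS (KRAS G12D) cells, plated 1000/well one day before dosing, was measured at 490 nm following 4 h MTT or MTS incubation. IC50 was fitted from dose–effect curves relative to DMSO-treated wells.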

| SMILES | IC50 [nM] |
| --- | --- |
| C#Cc1c(F)ccc2cc(O)cc(-c3ccc4c(N5C[C@H]6CC[C@@H](C5)[C@@H]6S(C)(=O)=O)nc(OC[C@@]56CCCN5C[C@H](F)C6)nc4c3F)c12 [Example 131, 5-ethynyl-6-fluoro-4-(8-fluoro-2-(((2R,7aS)-2-fluorotetrahydro-1H-pyrrolizin-7a(5H)-yl)methoxy)-4-((1R,5S, 8R)-8-(methylsulfonyl)-3-azabicyclo[3.2.1]octan-3-yl)quinazolin-7-yl)naphthalen-2-ol] | > 2500 |

same assay, conditions: Homo sapiens, AGS, 72 h, AGS cells; MTT/MTS; 3 days of drug treatment; read-out: AGS IC50

| SMILES | IC50 [nM] |
| --- | --- |
| [O-][S+]1C2CCC1CN(c1nc(OC[C@@]34CCCN3C[C@H](F)C4)nc3c(F)c(-c4cc(O)cc5ccc(F)c(F)c45)ncc13)C2 (stereo partly drawn) [Example 28, (1R,5S,8R)-3-(7-(7,8-difluoro-3-hydroxynaphthalen-1-yl)-8-fluoro-2-(((2R, 7aS)-2-fluorotetrahydro-1H-pyrrolizin-7a(5H)-yl)methoxy)pyrido[4,3-d]pyrimidin-4-yl)-8-thia-3-azabicyclo [3.2.1]octane 8-oxide] | > 1000 |
| C#Cc1c(F)ccc2cc(O)cc(-c3ccc4c(N5C[C@H]6CC[C@@H](C5)N6)nc(OC[C@@]56CCCN5C[C@H](F)C6)nc4c3F)c12 [Example 91, 4-(4-((1R,5S)-3,8-diazabicyclo[3.2.1]octan-3-yl)-8-fluoro-2-(((2R,7aS)-2-fluorotetrahydro-1H-pyrrolizin-7a(5H)-yl)methoxy)quinazolin-7-yl)-5-ethynyl-6-fluoronaphthalen-2-ol] | 1.3 |
| C#Cc1c(F)ccc2cc(O)cc(-c3ncc4c(N5C[C@H]6CC[C@@H](C5)N6)nc(OC[C@@]56CCCN5C[C@H](F)C6)nc4c3O)c12 [Example 332, 4-((1R,5S)-3,8-diazabicyclo[3.2.1]octan-3-yl)-7-(8-ethynyl-7-fluoro-3-hydroxynaphthalen-1-yl)-2-(((2R,7aS)-2-fluorotetrahydro-1H-pyrrolizin-7a(5H)-yl)methoxy)pyrido[4,3-d]pyrimidin-8-ol] | > 2500 |
| C#Cc1c(F)ccc2cc(O)cc(-c3c4c(c5c(N6C[C@H]7CC[C@@H](C6)N7)nc(OC[C@@]67CCCN6C[C@H](F)C7)nc5c3F)CCC4)c12 [Example 379, 4-(1-((1R,5S)-3,8-diazabicyclo[3.2.1]octan-3-yl)-5-fluoro-3-(((2R,7aS)-2-fluorotetrahydro-1H-pyrrolizin-7a(5H)-yl)methoxy)-8,9-dihydro-7H-cyclopenta[f]quinazolin-6-yl)-5-ethynyl-6-fluoronaphthalen-2-ol] | 90 |
| C#Cc1cccc2cc(O)cc(-c3ncc4c(N5C[C@H]6CC[C@@H](C5)O6)nc(OC[C@@]56CCCN5C[C@H](F)C6)nc4c3F)c12 [Example 11, 4-(4-((1R,5S)-8-oxa-3-azabicyclo[3.2.1]octan-3-yl)-8-fluoro-2-(((2R,7aS)-2-fluorotetrahydro-1H-pyrrolizin-7a(5H)-yl)methoxy)pyrido[4,3-d]pyrimidin-7-yl)-5-ethynylnaphthalen-2-ol] | 390 |
| CCc1ccc2cc(O)cc(-c3ncc4c(N5C[C@H]6CC[C@@H](C5)N6)nc(OC[C@@]56CCCN5C[C@H](F)C6)nc4c3F)n12 [Example 351, 5-(4-((1R,5S)-3,8-diazabicyclo[3.2.1]octan-3-yl)-8-fluoro-2-(((2R,7aS)-2-fluorotetrahydro-1H-pyrrolizin-7a(5H)-yl)methoxy)pyrido[4,3-d]pyrimidin-7-yl)-3-ethylindolizin-7-ol] | 30 |
| Nc1cc2ccc(F)c(Cl)c2c(-c2ncc3c(N4C[C@H]5CC[C@@H](C4)N5)nc(OC[C@@]45CCCN4C[C@H](F)C5)nc3c2F)n1 [Example 39, 1-(4-((1R,5S)-3,8-diazabicyclo[3.2.1]octan-3-yl)-8-fluoro-2-(((2R,7aS)-2-fluorotetrahydro-1H-pyrrolizin-7a(5H)-yl)methoxy)pyrido[4,3-d]pyrimidin-7-yl)-8-chloro-7-fluoroisoquinolin-3-amine] | > 2500 |
| C#Cc1c(F)ccc2cc(O)cc(-c3ncc4c(N5C[C@H]6CC[C@@H](C5)O6)nc(OC[C@@]56CCCN5C[C@H](F)C6)nc4c3F)c12 [Example 12, 4-(4-((1R,5S)-8-oxa-3-azabicyclo[3.2.1]octan-3-yl)-8-fluoro-2-(((2R,7aS)-2-fluorotetrahydro-1H-pyrrolizin-7a(5H)-yl)methoxy)pyrido[4,3-d]pyrimidin-7-yl)-5-ethynyl-6-fluoronaphthalen-2-ol] | 316 |
| CCc1c(F)ccc2cc(O)cc(-c3ccc4c(N5C[C@H]6CC[C@@H](C5)N6)c(C(F)(F)F)c(OC[C@@]56CCCN5C[C@H](F)C6)nc4c3F)c12 [Example 186, 4-(4-((1R,5S)-3,8-diazabicyclo[3.2.1]octan-3-yl)-8-fluoro-2-(((2R,7aS)-2-fluorotetrahydro-1H-pyrrolizin-7a(5H)-yl)methoxy)-3-(trifluoromethyl)quinolin-7-yl)-5-ethyl-6-fluoronaphthalen-2-ol] | 1420 |
| CCc1ccc2cc(O)cc(C3=C(F)c4nc(OC[C@@]56CCCN5C[C@H](F)C6)nc(N5C[C@H]6CC[C@@H](C5)N6)c4C4=NCCN43)n12 [Example 412, 5-(10-((1R,5S)-3,8-diazabicyclo[3.2.1]octan-3-yl)-6-fluoro-8-(((2R,7aS)-2-fluorotetrahydro-1H-pyrrolizin-7a(5H)-yl)methoxy)-2,3-dihydroimidazo[1′,2′:1,2]pyrido[4,3-d]pyrimidin-5-yl)-3-ethylindolizin-7-ol] | 35 |
| C#Cc1cccc2cc(O)cc(-c3ccc4c(C5C[C@H]6CC[C@@H](C5)N6)nc(OC[C@@]56CCCN5C[C@H](F)C6)nc4c3F)c12 (stereo partly drawn) [Example 138, 4-(4-((1R,5S)-8-azabicyclo[3.2.1]octan-3-yl)-8-fluoro-2-(((2R, 7aS)-2-fluorotetrahydro-1H-pyrrolizin-7a(5H)-yl)methoxy)quinazolin-7-yl)-5-ethynylnaphthalen-2-ol] | > 2500 |
| C#Cc1c(F)ccc2cc(O)cc(-c3ccc4c(N5CC6CCNC6C5)nc(OC[C@@]56CCCN5C[C@H](F)C6)nc4c3F)c12 (stereo partly drawn) [Example 113, 5-ethynyl-6-fluoro-4-(8-fluoro-2-(((2R,7aS)-2-fluorotetrahydro-1H-pyrrolizin-7a(5H)-yl)methoxy)-4-(hexahydropyrrolo[3,4-b]pyrrol-5(1H)-yl)quinazolin-7-yl) naphthalen-2-ol] | > 2500 |
| C#Cc1cc2c(N3C[C@H]4CC[C@@H](C3)N4)nc(OC[C@@]34CCCN3C[C@H](F)C4)nc2c(F)c1-c1cc(O)cc2c1C(CC)CC2 (stereo partly drawn) [Example 371, 7-(4-((1R,5S)-3,8-diazabicyclo[3.2.1]octan-3-yl)-6-ethynyl-8-fluoro-2-(((2R,7aS)-2-fluorotetrahydro-1H-pyrrolizin-7a(5H)-yl)methoxy)quinazolin-7-yl)-1-ethyl-2,3-dihydro-1H-inden-5-ol] | 85 |
| CCc1cccc2cc(O)cc(-c3ncc4c(N5C[C@H]6CC[C@@H](C5)N6)nc(OCC5(CN6CCCC6)CC5)nc4c3F)c12 [Example 4, 4-(4-((1R,5S)-3,8-diazabicyclo[3.2.1]octan-3-yl)-8-fluoro-2-((1-(pyrrolidin-1-ylmethyl)cyclopropyl)methoxy)pyrido[4,3-d]pyrimidin-7-yl)-5-ethylnaphthalen-2-ol] | 11 |
| Oc1cc2c(c(-c3ccc4c(N5C[C@H]6CC[C@@H](C5)N6)nc(OC[C@@]56CCCN5C[C@H](F)C6)nc4c3F)c1)C=CCC2 [Example 305, 4-(4-((1R,5S)-3,8-diazabicyclo[3.2.1]octan-3-yl)-8-fluoro-2-(((2R,7aS)-2-fluorotetrahydro-1H-pyrrolizin-7a(5H)-yl)methoxy)quinazolin-7-yl)-7,8-dihydronaphthalen-2-ol] | 102 |
| C#Cc1c(F)ccc2cc(O)cc(-c3ncc4c(N5CC6CCC(C5)C6S(C)(=O)=O)nc(OC[C@@]56CCCN5C[C@H](F)C6)nc4c3F)c12 (stereo partly drawn) [Example 66, 5-ethynyl-6-fluoro-4-(8-fluoro-2-(((2R,7aS)-2-fluorotetrahydro-1H-pyrrolizin-7a(5H)-yl)methoxy)-4-((1R,5S, 8R)-8-(methylsulfonyl)-3-azabicyclo[3.2.1]octan-3-yl)pyrido[4,3-d]pyrimidin-7-yl) naphthalen-2-ol] | > 10000 |
| CCc1c(F)ccc2cc(O)cc(-c3ccc4c(N5C[C@H]6CC[C@@H](C5)N6)nc(OC[C@@]56CCCN5C[C@H](F)C6)nc4n3)c12 [Example 141, 4-(4-((1R,5S)-3,8-diazabicyclo[3.2.1]octan-3-yl)-2-(((2R,7aS)-2-fluorotetrahydro-1H-pyrrolizin-7a(5H)-yl)methoxy)pyrido[2,3-d]pyrimidin-7-yl)-5-ethyl-6-fluoronaphthalen-2-ol] | > 2500 |
| C#Cc1c(F)ccc2cc(O)cc(-c3ncc4c(-c5ccn(C(=O)CO)c5)nc(OC[C@@]56CCCN5C[C@H](F)C6)nc4c3F)c12 [Example 86, 1-(3-(7-(8-ethynyl-7-fluoro-3-hydroxynaphthalen-1-yl)-8-fluoro-2-(((2R, 7aS)-2-fluorotetrahydro-1H-pyrrolizin-7a(5H)-yl)methoxy)pyrido[4,3-d]pyrimidin-4-yl)-1H-pyrrol-1-yl)-2-hydroxyethan-1-one] | > 10000 |
| Cc1cc(N)nc(-c2ncc3c(N4C[C@H]5CC[C@@H](C4)N5)nc(OC[C@@]45CCCN4C[C@H](F)C5)nc3c2F)c1C1CC1 [Example 72, 6-(4-((1R,5S)-3,8-diazabicyclo[3.2.1]octan-3-yl)-8-fluoro-2-(((2R,7aS)-2-fluorotetrahydro-1H-pyrrolizin-7a(5H)-yl)methoxy)pyrido[4,3-d]pyrimidin-7-yl)-5-cyclopropyl-4-methylpyridin-2-amine] | > 2500 |
| CCc1c(F)ccc2cc(O)cc(-c3c(F)c4nc(OC[C@@]56CCCN5C[C@H](F)C6)nc(N5C[C@H]6CC[C@@H](C5)N6)c4c4cncn34)c12 [Example 416, 4-(1-((1R,5S)-3,8-diazabicyclo[3.2.1]octan-3-yl)-5-fluoro-3-(((2R,7aS)-2-fluorotetrahydro-1H-pyrrolizin-7a(5H)-yl)methoxy)imidazo[1′,5′:1,2]pyrido[4,3-d]pyrimidin-6-yl)-5-ethyl-6-fluoronaphthalen-2-ol] | 28 |

Reference: patent US20240300980A1, “HETEROCYCLIC COMPOUNDS AS KRAS INHIBITOR, AND PREPARATION THEREFOR AND USE THEREOF IN TREATMENT” (SHANGHAI KECHOW PHARMA, INC., priority 2021, published 2024)
